Values of other authors as cited in patent US20160081915A1, “TRANSDERMAL FORMULATIONS OF FLUTICASONE” (STRATEGIC SCIENCE & TECHNOLOGIES, LLC, priority 2013, published 2016).

Details: oral; extensive first-pass metabolism in the liver

C[C@@H]1C[C@H]2[C@@H]3C[C@H](F)C4=CC(=O)C=C[C@]4(C)[C@@]3(F)[C@@H](O)C[C@]2(C)[C@@]1(O)C(=O)SCF [fluticasone]
half-life when delivered orally: about 7.8 hours
